Holding throughout (format): in vivo
Assay [1] deals with 3 tasters. The experiment in a line: Taste profile of Test Compound Na Salt with HFCS-55 in pH 3.0 buffer (Example 4). Conditions: Test Compound (Na Salt) 1100 ppm. Here is the method:
(§1) The taste profile of the Test Compound Sweetener (Na Salt of the compound) was evaluated in combination with sweeteners—namely High Fructose Corn Syrup (HFCS-55). These samples were evaluated in pH 3.0 buffer by 3 tasters. Samples were tasted in a blinded fashion using sip and spit methodology. The focus of the evaluation was to obtain an indication of the sweetness profile of the blends when compared to sucrose. Materials and Methods. Potassium sorbate was dissolved into water. The remaining ingredients were added and mixed until fully dissolved. The pH of each sample was recorded and the samples tasted using sip and spit method. The samples were then compared to each other.

Assay [2] relates to 3 tasters. The experiment in a line: Taste profile of Test Compound Na Salt with sucralose in pH 3.0 buffer (Example 7). Here is the method: The taste profile of the Test Compound Sweetener (Na Salt of the compound) was evaluated in combination with sweeteners—namely sucralose. These samples were evaluated in pH 3.0 buffer at 10 SE by 3 tasters. Samples were tasted in a blinded fashion using sip and spit methodology. The focus of the evaluation was to obtain an indication of the sweetness profile of the blends when compared to sucrose.
Materials and Methods. Potassium sorbate was dissolved into water. The remaining ingredients were added and mixed until fully dissolved. The samples were tasted using sip and spit method. The samples were then compared to each other and the HFCS-55 sweetness equivalence target (10 SE).

For assay [3], the system named is trained descriptive analysis (DA) panel. Nature of the assay: Concentration-response testing of the Test Compound vs sucrose, sweetness intensity on gLMS. Conditions: in water at room temperature; tested range 0% to 0.2% (2000 ppm). As for the experimental part: A concentration-response (CR) testing of the Test Compound was conducted using a trained descriptive analysis (DA) panel to compare the Test Compound in an aqueous matrix to sucrose. The concentration-response curve for the natural sweetener (Test Compound) was determined using a general Labeled Magnitude Scale (gLMS). Trained panelists were asked to rate the sweetness intensity of eight (8) concentrations of sweetener and sucrose, in water at room temperature (RT). […] This relationship was established using a dose response model (Equation 2: R=Rmin+(C^Hillslope)*(Rmax−Rmin)/(C^HillSlope+EC50^HillSlope) for Sucrose and the Test Compound Sweetener. Study design and Test Samples: A trained panel of 10-12 descriptive analysis panelists participated in the experiment. All participants underwent training, during which panelists familiarized themselves with rating the sweetness intensity on the gLMS scale. The scale is depicted in FIG. 4 as a vertical line marked with anchors describing different intensities. The panelists were instructed to rate the perceived sweetness intensity for each sample by marking a line on the scale. The order of samples was randomized and blinded using the William's Latin Square design. The order of sample presentation within each sweetener set was also randomized. All samples were evaluated using a sip and spit protocol.

For assay [4] the test system is unchanged. The experiment in a line: Sensory evaluation of Test Compound/Reb M blends (sweetness quality and off-taste profile), 15 cm scale. Conditions: in water solution.
Assay [5] relates to 3 tasters. The experiment in a line: Taste profile of Test Compound Na Salt with Reb A in pH 3.0 buffer (Example 5). As for the experimental part: as §1, with “Rebaudioside A (Reb A). Enliten® 300000 (Reb A 95) was used in combination with the Test Compound.” for “High Fructose Corn Syrup (HFCS-55).”
Assay [6] deals with trained descriptive analysis (DA) panel. The experiment in a line: Sensory evaluation of Test Compound/Reb M blends (sweetness quality and off-taste profile), 15 cm scale. Conditions: RO water, samples target 10 Brix sucrose, 1000 ppm Test Comp, 600 ppm Reb M; for Bitter Aftertaste (1 min) / Sweet Aftertaste (1 min): 1 minute after expectoration; for Bitter Aftertaste (3 min) / Sweet Aftertaste (3 min): 3 minutes after expectoration; for Astringent / Bitter / Licorice / Metallic / Sweet AT (Appearance Time) / Sweet Intensity (ns) / Thickness: room temperature, LSD means. Here is the method:
Sensory results for sweetener blends with Reb M were evaluated using a trained descriptive analysis (DA) panel. Five blend samples were tested in this panel; wherein each sample was designed to target a sweetness equivalence of 10 Brix Sucrose.
Study Designs and Test Samples. A validated and trained panel of 10-12 descriptive analysis panelists participated in these experiments.
During the test sessions, panelists rated the intensity of each attribute on a 15 cm scale. Five test samples were tested for each attribute, in triplicate. The order of samples was randomized and blinded using the Williams Latin Square design. All samples were prepared in reverse osmosis (RO) water and served at room temperature and evaluated using a sip and spit protocol.
Each of the five samples were evaluated for sensory attributes corresponding to sweetness quality and off-taste profile. Attributes of sweetness intensity, sweetness appearance time, sweetness aftertaste and thickness were evaluated as part of the sweetness quality profiling. Specifically, for sweetness aftertaste two time points were evaluated; 1 minute and 3 minutes, after expectoration. The sweetness aftertaste corresponds to the sweetness linger characteristic, often common to high potency sweeteners.
Off-Taste Profile. All 5 blend samples were also evaluated for attributes of bitter, astringent, metallic, licorice, and bitter aftertaste, as part of the off-taste profiling. Specifically, for bitter aftertaste two time points were evaluated; 1 minute and 3 minutes, after expectoration. When referring to ‘bitter’ tastes herein it refers to a sample that confers a bitter taste, activates or that can be detected by a bitter taste receptor and/or confers the perception of a bitter taste in a subject. Table 5 lists the LSD Means Differences for the off-taste evaluation across the 5 blend samples with Reb M.

[7] abbreviates: 10 SE target, Test Compound Na Salt 1100 ppm, blend 550 ppm + 85 ppm Sucralose, Sucralose 170 ppm.

Each structure is given as a SMILES string.

Take `Cc1ccc2[nH]cc(C[C@@H](N)C(=O)O)c2c1` [Compound 5, (R)-2-amino-3-(5-methyl-1H-indol-3-yl)propanoic acid]: in assay [1] (blend 550 ppm + 6.49% HFCS-55), the mouthfeel result was “lower in mouthfeel”. Besides, the sweetness and taste result in assay [1] (blend 550 ppm + 6.49% HFCS-55, HFCS-55 12.987%) was “fairly clean in taste and provides good upfront sweetness”. Further, the adaptation entry in assay [2] (in combination with sucralose) is reported as “helped reduce the adaptation commonly with sucralose”. For the same compound, in assay [3], the “concentration-response curve (sweetness intensity, gLMS)” value was “linear relationship”. The “off-taste of the sweetener by itself” value in assay [4] was “minimal bitterness, astringency and bitter linger”. The adaptation entry in assay [5] (in combination with Reb A) is on record as “helped reduce the adaptation commonly with Reb A”. Further, in assay [6], the “Bitter Aftertaste (1 min)” value is 0.2, the “Sweet Aftertaste (1 min)” value was 3.1, the “Bitter Aftertaste (3 min)” value was 0.1 and the “Sweet Aftertaste (3 min)” value turned out to be 0.2. In assay [6], the Astringent worked out at 1.7, the Bitter worked out at 1.5, the Licorice turned out to be 1.6 and the Metallic is 1.1. Moreover, in assay [6], the “Sweet AT (Appearance Time)” value is listed as 4.2, the “Sweet Intensity (ns)” value was 10.0 and the Thickness is on record as 6.7.

As to `C=C1C[C@@]23CC[C@H]4[C@@](C)(CCC[C@@]4(C)C(=O)O[C@@H]4O[C@H](CO)[C@@H](O)[C@H](O)[C@H]4O)[C@@H]2CC[C@]1(O[C@@H]1O[C@H](CO)[C@@H](O)[C@H](O[C@@H]2O[C@H](CO)[C@@H](O)[C@H](O)[C@H]2O)[C@H]1O[C@@H]1O[C@H](CO)[C@@H](O)[C@H](O)[C@H]1O)C3` [Reb A, Rebaudioside A], in assay [5] (8SE target, Test Compound Na Salt 880 ppm, blend 440 ppm + 275 ppm Reb A, Reb A 550 ppm), the sweetness and taste result is on record as “much less sweet than 8SE”. The “onset, decay and off notes” value in assay [5] (Test Compound Na Salt 880 ppm, blend 440 ppm + 275 ppm Reb A, Reb A 550 ppm) was “plastic/floral/metallic taste to it with a bitter and astringent linger”.

For `C=C1C[C@@]23CC[C@H]4[C@@](C)(CCC[C@@]4(C)C(=O)O[C@@H]4O[C@H](CO)[C@@H](O)[C@H](O[C@@H]5O[C@H](CO)[C@@H](O)[C@H](O)[C@H]5O)[C@H]4O[C@@H]4O[C@H](CO)[C@@H](O)[C@H](O)[C@H]4O)[C@@H]2CC[C@]1(O[C@@H]1O[C@H](CO)[C@@H](O)[C@H](O[C@@H]2O[C@H](CO)[C@@H](O)[C@H](O)[C@H]2O)[C@H]1O[C@@H]1O[C@H](CO)[C@@H](O)[C@H](O)[C@H]1O)C3` [Reb M, Rebaudioside M, reference compound], in assay [6], the “Bitter Aftertaste (1 min)” value is recorded as 1.6, the “Sweet Aftertaste (1 min)” value came to 5.1, the “Bitter Aftertaste (3 min)” value was 0.9 and the “Sweet Aftertaste (3 min)” value is given as 1.8. In assay [6], the Astringent is recorded as 3.1, the Bitter was 4.0, the Licorice was determined as 3.4 and the Metallic was found to be 1.7. In assay [6], the “Sweet AT (Appearance Time)” value came to 6.8, the “Sweet Intensity (ns)” value is given as 10.0 and the Thickness is reported as 3.5.

Consider `OC[C@H]1O[C@H](O[C@]2(CCl)O[C@H](CCl)[C@@H](O)[C@@H]2O)[C@H](O)[C@@H](O)[C@H]1Cl` [Sucralose, sucralose], for which, in assay [2] (setting [7]), the mouthfeel and aftertaste/linger result is reported as “Significant aftertaste/linger”; the “sweetness vs HFCS-55 target” value is reported as “less sweet than HFCS (LOSE) with a delayed sweetness”.

The values are drawn from US20220256900A1, “COMPOSITIONS WITH SUGAR LIKE CHARACTERISTICS” (CORN PRODUCTS DEVELOPMENT, INC., priority 2019, published 2022).
